Data set [1] in a line: Solubility test of crystal form A in different solvents. Format: physicochemical. Conditions: thermodynamic from solid. As to the method:
Solubility Test of Crystal Form a in Different Solvents Add 1^˜1.5 mg crystal form A of the compound 1 in volumetric flask, then single solvent or mixed solvent is added into the flask with multiple times until the solution become clear or solid particles disappear. The solubility of crystal form A in different solvents is determined thereby.

Another data set deals with HFMD virus EV71. In words: EV71 in-vitro cytopathic effect (CPE) test. It is filed as cell-based. The following applies: Enterovirus A, EV71, 72 h; RD cells, 3 days, CCK8 readout; read-out: EC50 by EC71 CPE test, EV71. An excerpt: Activity Evaluation In Vitro Experimental 1: Test of EV71 In-Vitro Cytopathic Effect (CPE) Purpose of Experiment: To test the in-vitro antiviral activity and cytotoxicity of a compound to HFMD virus EV71 by means of cytopathic effect (CPE) test. Test Materials: 1. Virus strain: Shenzhen/120F1/09 2. Cell line: RD cells of human rhabdomyoma 3. Cell culture media: DMEM medium added with 10% serum, Penicillin/Streptomycin and L-Glutannine (1^×) 4. Test reagent: cellular activity test reagent CCK8 Test Method: 1. Cell inoculation: digest off the RD cells from the attached state, then dilute them with culture medium to a density of 80000/ml and inoculate 100 μl into the micro wells of the 96-well plate. 2. Dilution of Compound: Step 1: prepare the dry powder of a compound to be tested into a 10 mM solution in DMSO. Then dilute the compound by three times to eight concentration points. Dilute the reference compounds with the same method. Step 2: further dilute the diluted solution of the compound in DMSO with cell culture medium. Add 10 μl DMSO solution for each well into 240 μl culture medium. 3. Add the diluted compound solution by 50 μl each well into the 96-well plate inoculated with cells (double holes, final concentration of DMSO is 1%). 4. […] Use ELIASA to read the absorbancy at the wavelength of 450 nm and 630 nm. […]
In general terms: Protection from cytopathic effect is a common read-out in antiviral testing.

A short description of data set [2]: Solubility test of crystal form B in different solvents. Format: physicochemical. The following applies: thermodynamic from solid; for solubility at 4 h: read-out: Solubility (mg/mL) 4 h; for solubility at 24 h: read-out: Solubility (mg/mL) 24 h. As to the method: Solubility Test of Crystal Form B in Different Solvents Add 1^˜1.5 mg crystal form B of the compound 2 in volumetric flask, then single solvent or mixed solvent is added into the flask with multiple times until the solution become clear or solid particles disappear. The solubility of crystal form B in different solvents is determined thereby.

Where [3] appears, read: aqueous buffer, pH 3.5 buffer solution.
Setting [4] is: aqueous buffer, pH 4.5 buffer solution.
Where [5] appears, read: aqueous buffer, pH 5.5 buffer solution.
Setting [6] is: aqueous buffer, pH 6.5 buffer solution.
Where [7] appears, read: aqueous buffer, pH 6.8 buffer solution.
Setting [8] is: aqueous buffer, pH 7.5 buffer solution.
[9] abbreviates: saline or isotonic, normal saline.
Setting [10] is: simulated gastric fluid, 0.01N HCl.
Where [11] appears, read: simulated gastric fluid, 0.1N HCl.

Converted amounts (≈) assume the structure as drawn. Where two headings read alike, the source gives them in different places. Bounds are passed on as bounds.

Results on 2 compounds are retold here after patent US10227339B2, “Salt form and crystal form of 1,2,5-thiadiazolidin-1,1-dioxide, preparation method thereof and intermediate” (JIANGSU KANION PARMACEUTICAL CO. LTD, priority 2015, dated 2019).

A word on the EC50: it is the concentration at which the effect is half-maximal.

For `CCn1nnc(-c2ccc(OCCC(C)(C)CCN3CCN(c4ccnc(N)c4)S3(=O)=O)nc2)n1` [Compound 1], the solubility in data set [1] (aqueous with cosolvent or surfactant or cyclodextrin, solvent: Acetone-water (3:1)) was less than 2240 µg/mL; in data set [1] (aqueous with cosolvent or surfactant or cyclodextrin, solvent: Ethanol-water (3:1)) it was less than 2320 µg/mL; in data set [1] (aqueous with cosolvent or surfactant or cyclodextrin, solvent: Methanol-water (3:1)) it was less than 2070 µg/mL; in data set [1] (organic solvent or mixture, solvent: 1,4-dioxane), 11800 to 13200 µg/mL (≈ 23.5 to 26.3 mM); in data set [1] (organic solvent or mixture, solvent: 2-Methyltetrahydrofuran), less than 2180 µg/mL; in data set [1] (organic solvent or mixture, solvent: acetone), 5580 to 7430 µg/mL (≈ 11.1 to 14.8 mM). Moreover, the solubility in data set [1] (organic solvent or mixture, solvent: ethanol) is less than 2090 µg/mL; in data set [1] (organic solvent or mixture, solvent: ethyl acetate), less than 2130 µg/mL; in data set [1] (organic solvent or mixture, solvent: methanol), less than 1980 µg/mL. The EC50 with HFMD virus EV71 is no more than 0.01 µM.

For the compound `CCn1nnc(-c2ccc(OCCC(C)(C)CCN3CCN(c4ccnc(N)c4)S3(=O)=O)nc2)n1` [Compound 2], the solubility at 4 h was 232 mg/mL (≈ 463 mM) in data set [2] (setting [3]); 6.12 mg/mL (≈ 12.2 mM) in data set [2] (setting [4]); less than 0.1 mg/mL in data set [2] (setting [5]); less than 0.1 mg/mL in data set [2] (setting [6]); less than 0.1 mg/mL in data set [2] (setting [7]); less than 0.1 mg/mL in data set [2] (setting [8]). The solubility at 4 h is 42.9 mg/mL (≈ 85.5 mM) in data set [2] (setting [9]), greater than 998 mg/mL in data set [2] (setting [10]), greater than 873 mg/mL in data set [2] (setting [11]) and 416 mg/mL (≈ 829 mM) in data set [2] (water). Besides, the solubility at 24 h in data set [2] (setting [3]) is 186 mg/mL (≈ 370 mM); in data set [2] (setting [4]), 4.54 mg/mL (≈ 9.05 mM); in data set [2] (setting [5]), less than 0.1 mg/mL; in data set [2] (setting [6]), less than 0.1 mg/mL; in data set [2] (setting [7]), less than 0.1 mg/mL; in data set [2] (setting [8]), less than 0.1 mg/mL. Moreover, the solubility at 24 h in data set [2] (setting [9]) was 43.4 mg/mL (≈ 86.6 mM); in data set [2] (setting [10]), greater than 986 mg/mL; in data set [2] (setting [11]) it was greater than 935 mg/mL; in data set [2] (water), 346 mg/mL (≈ 690 mM).
